Assay results reported in patent US6589967B1, “Oxime O-ether compounds and fungicides for agricultural and horticultural use” (Nippon Soda Co. Ltd., priority 1999, dated 2003).

Tested on: snap bean gray mold fungus (Botrytis cinerea)
Assay: Test on Kidney Bean Gray Mold Control
Format: in vivo
Settings: 50 ppm active ingredient, cut Kidney bean flowers (Nagauzura) dipped, spores sprayed, placed on detached leaves, 7 days at 20° C., high humidity
Protocol: Now, explanation is made on how the compounds according to the present invention are effective as an active ingredient of a fungicide for controlling various plant diseases with reference to Test examples described later. In the Test Examples, the control efficacy is determined by visually checking the infested state of the test plants at the time of observation, namely, checking the damage to the host plants and the developing state of the disease-causing fungus appeared on leaves, stems, etc. of the test plants, compared to the control test plants which are healthy. Flowers of Kidney bean (variety; Nagauzura) grown in a flat vessel for culturing seedlings are cut, and the cut flowers were dipped into a solution prepared by diluting the emulsifiable concentrate prepared for the compound of the present invention at a concentration of 50 ppm based on the active ingredient. After the dipping, the flowers were dried at a room temperature. Then, spore solution of snap bean gray mold fungus (Botrytis cinerea) was sprayed to the flowers. The flowers sprayed with spores of the gray mold fungus were placed on the leaves which were detached from healthy Kidney bean plants, and those leaves were placed in a room being maintained at 20° C. and high humidity with repeated lighting of 12 hours intervals, and the Kidney bean leaves were incubated in the room for 7 days. Then, the infestation degree by the fungus on the leaves was checked in comparison to the control healthy leaves to determine the control efficacy. […] Note that the compound numbers in the following correspond to the same compound numbers in the Table 1. Compound Nos. 1, 3, 6, 7, 11, 12, 13, 14, 15, 18, 20, 21, 22, 23, 25, 26, 27, 29, 36, 48, 49, 192, 194, 195, 196, 198, 201, 203, 204, 207, 208, 209, 210, 213, 216, 219, 220, 222, 223, 224, 225, 227, 228, 229, 231, 233, 234, 235, 236, 237, 239, 240, 242

## COc1ccc(F)c(F)c1CON=C(C)c1cc(C)cc(C)n1 [compound 198]
  control performance (control efficacy): excellent control performance
